Assay results as given in patent publication US10745701B2, “Methods of identifying and treating poor-prognosis cancers” (The Trustees of Princeton University, priority 2007, dated 2020).

Tests used:
LM2 cells [1] = assay: Drug uptake and retention analysis of radiolabeled paclitaxel and doxorubicin; conditions: for effect of MTDH on drug uptake or retention: cancer cells with modified MTDH expression (LM2 knockdown, SCP28 overexpression); for kinetics of uptake and retention: parent LM2 cells, pilot study, 50 nM [H3]-paclitaxel or 100 nM [C14]-doxorubicin
LM2 cells [2] = assay: Chemoresistance clonogenic assay; assay type: cell-based, human; conditions: for chemoresistance on ALDH3A1 overexpression in MTDH knockdown cells: constitutive ALDH3A1 overexpression in MTDH knockdown LM2 cells; for sensitivity of LM2 cells on ALDH3A1 knockdown: inducible ALDH3A1 shRNA induced by doxycycline
Description: The infected cells were selected with 0.5 μg/ml puromycin or/and 0.4 mg/ml hygromycin. Double knockdown of MET and ALDH3A1 was achieved by simultaneous infection of MET and ALDH3A1 targeting viruses with different drug selection markers. MTDH, LAPTM4b, PTDSS1, SDC2, TSPYL5, and UQCRB overexpression was achieved using the retroviral expression vector pBabe-hygro. Viruses were generated and used to infect target cells as above and the infected cells were selected with 0.4 mg/ml hygromycin. For combinational overexpression of genes at 8q22, the viruses generated from the expression vector pBabe-puro containing each of the four genes were concentrated by ultracentrifugation and pooled for infection. Northern blots, qRT-PCR, and/or Western blots were performed to validate the knockdown or overexpression of target genes.
To generate an inducible knockdown of ALDH3A1, a retroviral vector expressing the Tet repressor (TetR) was constructed by cloning the TetR coding sequence from the pcDNA6/TR plasmid (Invitrogen) to pQCXIH (Clontech). LM2 cell line with stable expression of TetR was generated by transduction with retroviruses produced from pQCXIH-TetR. The cell line was then infected with retroviruses generated from the pRSMX vector^77 containing the ALDH3A1-targeting shRNA sequence. The expression of a shRNA against ALDH3A1 is under the control of the histone H1 promoter and two adjacent tetracycline operators (TetOs). The bacterial Tet repressor (TetR) is constitutively expressed from the integrated pQCXIH-TetR in this cell line and suppresses the expression of shRNA by binding to TetOs. In the presence of […] doxycycline in the media, TetR is released from the TetOs and allow the transcription of ALDH3A1 shRNA and thus the repression of ALDH3A1 expression. The pBabe-hygro vector was used to overexpress ALDH3A1.
Cancer cells with genetic modification of MTDH and/or ALDH3A1 and the vector control were seeded into a 48-well plate (10^4 cells/well). After 24 h, the cells were treated with apoptosis-inducing chemicals for the indicated time (20, 50 or 100 nM paclitaxel, EMD Biosciences, 24 h; 50, 100 or 200 μM doxorubicin, EMD Biosciences, 24 h; 40 μM cisplatin, EMD Biosciences, 2 h; 200 or 500 μM H2O2, Fisher Scientific, 2 h) or 10 mJ/cm^2 UV irradiation. After culturing in drug-free DMEM medium for another 48 h, the surviving cells were quantified by clonogenic assay with the standard procedure for long-term recovery. Briefly, an aliquot of the harvested cell population was seeded onto a 10 cm dish. Crystal violet staining was used to count the colonies after 10-day culture in DMEM medium. The colony numbers from untreated cells of the same line were used to normalize the experimental data. In the HMVEC-L co-culture assays, HMVEC-L cells were grown to confluence in the 48-well plates with supplemented EGM-2 medium (Lonza) before seeding of cancer cells. Because HMVEC-L cells could not form colonies in the DMEM medium (data not shown), the rest of the assay was performed following the standard procedure.

LM2 cells [3] = assay: In vivo chemoresistance assay, subcutaneous LM2 xenograft tumors; parameters: species or system nude mice
Description: MTDH-knockdown or control LM2 cells (1×10^6 cells/0.1 ml in a 50:50 solution of PBS and Matrigel) were injected subcutaneously into each flank of nude mice. The mice were treated with chemotherapeutic drugs (20 mg/kg paclitaxel or 5 mg/kg doxorubicin) or the corresponding drug vehicles (Cremophor for paclitaxel and saline for doxorubicin) twice a week by intravenous delivery a week after the tumor xenografting. Six mice (12 tumors) were used for each group. Tumor growth was monitored twice a week by size measurement. Both maximum (L) and minimum (W) diameters of the tumor were measured using a slide caliper, and the tumor volume was calculated as […]LW^2/6. Tumor growth was normalized to that before drug treatment.

SMILES: COc1cccc2c1C(=O)c1c(O)c3c(c(O)c1C2=O)C[C@@](O)(C(=O)CO)C[C@@H]3O[C@H]1C[C@H](N)[C@H](O)[C@H](C)O1 [doxorubicin]
- effect of MTDH on drug uptake or retention (LM2 cells [1]): does not decrease drug uptake or retention
- kinetics of uptake and retention (LM2 cells [1]): biphasic kinetics
- chemoresistance on MET knockdown (LM2 cells [2]; MET knockdown in LM2 cells, weaker than MTDH knockdown): significant reduction of chemoresistance
- chemoresistance on ALDH3A1 overexpression in MTDH knockdown cells (LM2 cells [2]): partially restore
- sensitivity of LM2 cells on ALDH3A1 knockdown (LM2 cells [2]): more sensitive

SMILES: CC(=O)O[C@H]1C(=O)[C@@]2(C)[C@H]([C@H](OC(=O)c3ccccc3)[C@]3(O)C[C@H](OC(=O)[C@H](O)[C@@H](NC(=O)c4ccccc4)c4ccccc4)C(C)=C1C3(C)C)[C@]1(OC(C)=O)CO[C@@H]1C[C@@H]2O [paclitaxel]
- effect of MTDH on drug uptake or retention (LM2 cells [1]): does not decrease drug uptake or retention
- kinetics of uptake and retention (LM2 cells [1]): biphasic kinetics
- chemoresistance on ALDH3A1 overexpression in MTDH knockdown cells (LM2 cells [2]): partially restore
- sensitivity of LM2 cells on ALDH3A1 knockdown (LM2 cells [2]): more sensitive
- tumor size relative to pre-treatment size (LM2 cells [3]; MTDH knockdown LM2 cells, 20 mg/kg paclitaxel intravenous twice a week, 18 days after initiation of treatment): about 30%
- tumor response in MTDH knockdown tumors (LM2 cells [3]; MTDH knockdown LM2 cells, paclitaxel 20 mg/kg or doxorubicin 5 mg/kg twice a week): tumor regression
- tumor volume relative to volume before treatment (LM2 cells [3]; control LM2 cells, 20 mg/kg paclitaxel intravenous twice a week, 18 days after treatment): 140%
- effect on tumor growth (LM2 cells [3]; control LM2 cells, versus drug vehicle): significantly hampered tumor growth
